# How the values were obtained:
# Assay type in all cases: cell-based, human
# [1] = test system: MCF7/FasR and MCF7/FasR/Bcl-xL cells; assay: GSH quantification (GSH-Glo); settings: complex 4a all doses with 458 nm irradiation; TNFα 100 ng/mL; 72 h
# Protocol: ATP and glutathione (GSH) contents were measured with the Promega CellTiter-Glo (Cat#G7570) and GSH-Glo (cat#6911) luminescent assays, respectively, according to the manufacturer’s recommendations.
# Figure 13 Evaluation of apoptotic biomarkers. MCF7/FasR and MCF7/FasR/Bcl-xL cells were irradiated at 458 nm in presence of the indicated concentration of complex 4a or treated with […] TNFα for 72 h. (A) Cytosolic extracts from MCF7/FasR and MCF7/FasR/Bcl-xL cells were separated by SDS-PAGE and probed with anti-PARP, anti-caspase-7 and anti-caspase-8. Migrations indicated are: full-length PARP p113, cleaved PARP p89, full-length caspase-7 and full-length caspase-8. (B) MTT, ATP and GSH assays were evaluated in duplicate samples. Data are expressed as percent (%) of untreated cells and are the means of 3 independent experiments (***, p < 0.0001, NS, not significant).
# MCF7/FasR cells = assay: Cell death with or without pan-caspase inhibitor z-VAD-fmk, MTT; settings: TNFα 100 ng/mL, 72 h, MCF7/FasR, MTT
# Text: To determine the mechanism of cell death, we used MCF7 cells transfected to express the human Fas receptor (FasR) or doubly transfected to express the human Fas receptor and human Bcl-xL [75]. Since MCF7 cells express the TNF receptor endogenously, this allowed the study of both Fas- and TNFα-mediated apoptosis in the same cell model to assess whether cell death was dependent on the Bcl-2 family of mitochondrial proteins such as Bcl-xL. […] This is consistent with findings that death receptors such as FasR and TNFR can mediate apoptosis through both the extrinsic pathway (mitochondria-independent by directly activating executioner caspases via upstream caspase-8) and the intrinsic (mitochondrial) pathway controlled by the Bcl-2 family of proteins.
# We next evaluated the effect of the pan-caspase inhibitor z-VAD-fmk on caspase signaling. As expected, the treatment with z-VAD-fmk rendered MCF7/FasR cells resistant to TNFα-induced PARP and caspase-7 processing (Figure 14A) and to the loss of cell viability (Figure 14B).
# (§1) A tetrazolium-based MTT reagent (3-(4,5-dimethylthiazol-2-yl)-2,5-diphenyltetrazolium bromide) was used to determine cell viability, as previously described. After 72 h of treatment at 37 °C and 5% CO2, cells were incubated with 25 μL MTT solution (5 mg/mL; Sigma-Aldrich) for 4 h. After solubilization with 500 μL of lysis buffer (DMSO), formazan was quantified by spectrophotometry with a microplate reader at 570 nm absorbance (ClarioSTAR, BMG LabTech, Champigny-sur-Marne, France). […] All results were calculated from data obtained in at least three independent experiments.
# Figure 11 Bcl-xL and z-VAD-fmk inhibited by Fas- or TNFα-induced cell death in MCF7 cells. […] Cell death was assessed by MTT assay. […]
# Figure 14 Evaluation of apoptotic biomarkers. […] (B) Cell viability was evaluated in duplicate samples. Data are expressed as percent (%) of untreated cells and are the means of 3 independent experiments (***, p < 0.0001, NS, not significant).
# [2] = test system: MCF7/FasR and MCF7/FasR/Bcl-xL cells; assay: Bcl-xL dependence of cell death, MTT in MCF7/FasR vs MCF7/FasR/Bcl-xL; settings: complexes: 458 nm irradiation, 10 nM to 1 µM, TNFα 100 ng/mL, 72 h
# Text: To determine the mechanism of cell death, we used MCF7 cells transfected to express the human Fas receptor (FasR) or doubly transfected to express the human Fas receptor and human Bcl-xL [75]. Since MCF7 cells express the TNF receptor endogenously, this allowed the study of both Fas- and TNFα-mediated apoptosis in the same cell model to assess whether cell death was dependent on the Bcl-2 family of mitochondrial proteins such as Bcl-xL. […]
# Mitochondrial outer membrane permeabilization (MOMP), which leads to rapid cell death through the release of mitochondrial proteins (including cytochrome c) that activate executioner caspases, is the critical event in intrinsic apoptosis. […] We then assessed whether the cell death induced by our complexes could be abrogated by the overexpression of Bcl-xL.
# as §1, with “After 72 h of treatment at 37 °C and 5% CO2, cells were incubated with 25 μL MTT solution (5 mg/mL; Sigma-Aldrich) for 4 h.” left out, “experiments. […]” for “experiments.”
# Figure 13 Evaluation of apoptotic biomarkers. […] (B) MTT, ATP and GSH assays were evaluated in duplicate samples. […]
substance,measurement,setting,value
TNFα,level of reduced GSH,[1],decreased
same,reduction in cell viability,MCF7/FasR cells,65–85%
same,effect of Bcl-xL overexpression on loss of cell viability,[2],strongly inhibited by Bcl-xL

# From article PMC9861386, “N-Heterocyclic Carbene-Iridium Complexes as Photosensitizers for In Vitro Photodynamic Therapy to Trigger Non-Apoptotic Cell Death in Cancer Cells” (Molecules, 2023)
